Results from patent publication US10174011B2, “Heterocyclic compounds, process for preparation of the same and use thereof” (SHANGHAI INSTITUTE OF MATERIA MEDICA, CHINESE ACADEMY OF …, priority 2014, dated 2019).
Where two headings read alike, the source gives them in different places.

Columns and labels:
[1] = target: human recombinant 5-HT2A receptor (Homo sapiens (Human), UniProt P28223); experiment: 5-HT2A receptor antagonism activity test (FLIPR Calcium 5 Assay Kit); details: read-out: 5-HT2A receptor antagonism (IC50, mol/L)
[2] = target: human recombinant D2 receptor (Homo sapiens (Human), UniProt P14416); experiment: D2 receptor antagonism activity test (inhibition of dopamine-induced decrease of cAMP production, LANCE cAMP 384 Kit); details: read-out: D2 receptor antagonism (IC50, mol/L), HEK293 cells expressing human recombinant D2 receptor, 0.1 nM-10000 nM
[3] = target: human recombinant 5-HT1A receptor (Homo sapiens (Human), UniProt P08908); experiment: 5-HT1A receptor agonism activity test (inhibition of cAMP production, LANCE cAMP 384 Kit); type: cell-based; details: HEK293 cells expressing human recombinant 5-HT1A receptor; test concentration 0.1 nM-10000 nM; read-out: 5-HT1A receptor agonism (EC50, mol/L)
Excerpt: Pharmacological Test 1) 5-HT1A Receptor Agonism Activity Test

[4] = test system: PCP-induced hyperactivity in mice; experiment: In vivo efficacy test (PCP-induced high locomotor activity in mice); details: male ICR mice, oral administration 45 minutes before PCP 7 mg/kg i.p.; dose significantly reducing PCP-induced hyperactivity vs model group
Procedure: 5) In Vivo Efficacy Test (PCP-Induced High Locomotor Activity in Mice)
PCP solution was prepared in a suitable concentration for 7 mg/kg dosage with saline. […] Male ICR mice (18-22 g) were used as test animals. All the test mice were randomly divided into vehicle control group, model control group, positive control group, and treatment group(8 mice per group). Mice of each group were orally administered test compounds or vehicle. After 45 minutes PCP solution was administered (7 mg/kg) through intraperitoneal injection. The mice track after drug or saline administration was recorded and analyzed by the spontaneous, open-field video analysis system. […] The mice track was recorded and analyzed by the spontaneous, open-field video analysis system. The total distance in each group was calculate and expressed as mean+SD and statistical evaluation was performed by one way ANOVA.

[5] = CHO-K1 cells expressing human recombinant 5-HT2A receptor, α-methyl-5-hydroxytryptamine 300 nM, 0.1 nM-10000 nM

Sequence of human recombinant D2 receptor (P14416 whole entry): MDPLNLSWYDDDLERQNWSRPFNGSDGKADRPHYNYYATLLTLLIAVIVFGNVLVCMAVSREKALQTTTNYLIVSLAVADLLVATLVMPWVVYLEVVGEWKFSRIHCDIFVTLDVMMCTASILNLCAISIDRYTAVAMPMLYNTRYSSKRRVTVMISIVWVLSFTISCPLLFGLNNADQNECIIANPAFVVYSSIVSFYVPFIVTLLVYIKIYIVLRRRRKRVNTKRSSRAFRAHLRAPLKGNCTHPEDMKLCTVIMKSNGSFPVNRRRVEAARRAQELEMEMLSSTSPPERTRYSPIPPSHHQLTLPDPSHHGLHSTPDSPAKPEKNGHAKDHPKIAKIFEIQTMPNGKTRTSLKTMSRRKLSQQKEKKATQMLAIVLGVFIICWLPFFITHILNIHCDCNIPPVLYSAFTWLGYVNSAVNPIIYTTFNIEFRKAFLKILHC
Sequence of human recombinant 5-HT2A receptor (P28223 whole entry): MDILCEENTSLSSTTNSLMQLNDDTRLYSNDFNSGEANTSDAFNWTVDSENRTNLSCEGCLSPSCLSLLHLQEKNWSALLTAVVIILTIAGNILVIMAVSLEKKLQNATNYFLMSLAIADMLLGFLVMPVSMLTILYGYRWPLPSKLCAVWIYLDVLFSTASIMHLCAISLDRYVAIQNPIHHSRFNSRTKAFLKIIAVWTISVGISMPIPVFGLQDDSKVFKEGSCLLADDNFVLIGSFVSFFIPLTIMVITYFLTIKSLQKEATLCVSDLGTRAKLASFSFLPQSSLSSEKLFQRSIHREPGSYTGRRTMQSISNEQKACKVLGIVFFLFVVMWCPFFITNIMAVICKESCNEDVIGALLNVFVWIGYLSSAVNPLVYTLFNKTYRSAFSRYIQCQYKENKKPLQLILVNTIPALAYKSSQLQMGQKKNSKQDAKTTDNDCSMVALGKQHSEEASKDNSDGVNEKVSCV
Sequence of human recombinant 5-HT1A receptor (P08908 whole entry): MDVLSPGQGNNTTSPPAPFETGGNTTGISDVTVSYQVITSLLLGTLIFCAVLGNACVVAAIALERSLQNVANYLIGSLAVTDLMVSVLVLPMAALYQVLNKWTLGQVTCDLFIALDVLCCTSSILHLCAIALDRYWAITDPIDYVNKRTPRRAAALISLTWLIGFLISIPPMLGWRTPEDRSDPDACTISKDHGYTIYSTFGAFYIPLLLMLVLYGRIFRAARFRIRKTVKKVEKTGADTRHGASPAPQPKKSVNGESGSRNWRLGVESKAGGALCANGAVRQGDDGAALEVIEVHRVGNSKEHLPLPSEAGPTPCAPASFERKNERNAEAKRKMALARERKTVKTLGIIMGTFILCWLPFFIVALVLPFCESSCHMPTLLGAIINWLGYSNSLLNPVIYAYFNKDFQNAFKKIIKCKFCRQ

Row | SMILES | IC50 [1, 5] | IC50 [2] | EC50 [3] | Effective dose [4] | IC50 [1]
1 | Cc1nc2ccc(CCN3CCN(c4cccc5sccc45)CC3)cc2c(=O)[nH]1 [Compound of example 80, 6-(2-(4-(benzo[b]thiophen-4-yl)piperazin-1-yl)ethyl)-2-methylquinazolin-4(3H)-one] | 11.9 nM | 25.1 nM | 1.74 nM | 1 mg/kg | –
2 | Cl.O=S1(=O)NCCc2ccc(CCN3CCN(c4cccc5sccc45)CC3)cc21 [Compound of example 81, 7-(2-(4-(benzo[b]thiophen-4-yl)piperazin-1-yl)ethyl)-1,1-dioxide-3,4-dihydro-2H-benzo[e][1,2]thiazine hydrochloride] | 1.67 nM | 14.3 nM | 1.05 nM | 1 mg/kg | –
3 | O=C1Cc2cc(CCN3CCC(c4cccc5sccc45)CC3)ccc2N1 [Compound of example 82, 5-(2-(4-(benzo[b]thiophen-4-yl)piperidin-1-yl)ethyl)indolin-2-one] | 11.5 nM | 10.9 nM | 2.8 nM | 1 mg/kg | –
4 | O=C1CCc2ccc(CCN3CCC(c4cccc5sccc45)CC3)cc2N1 [Compound of example 83, 7-(2-(4-(benzo[b]thiophen-4-yl)piperidin-1-yl)ethyl)-3,4-dihydroquinolin-2(1H)-one] | – | 10.4 nM | 4.91 nM | 1 mg/kg | 25 nM
5 | O=C1CCc2ccc(CCN3CCN(c4cc(F)cc5sccc45)CC3)cc2N1 [Compound of example 85, 7-(2-(4-(6-fluorobenzo[b]thiophen-4-yl)piperazin-1-yl)ethyl)-3,4-dihydroquinolin-2(1H)-one] | – | 5.32 nM | 1.38 nM | 1 mg/kg | 77.5 nM
6 | Cn1c(=O)[nH]c2cc(CCN3CCN(c4cccc5sccc45)CC3)ccc21 [Compound of example 88, 5-(2-(4-(benzo[b]thiophen-4-yl)piperazin-1-yl)ethyl)-1-methyl-1H-benzo[d]imidazol-2(3H)-one] | 356 nM | 215 nM | 6.31 nM | 1 mg/kg | –
7 | COc1cc2c(N3CCN(CCc4ccc5c(c4)CCC(=O)N5)CC3)cccc2s1 [Compound of example 89, 6-(2-(4-(2-methoxybenzo[b]thiophen-4-yl)piperazin-1-yl)ethyl)-3,4-dihydroquinolin-2(1H)-one] | 1050 nM | 8.06 nM | 1.29 nM | 1 mg/kg | –
8 | O=c1ccc2ccc(CCN3CCN(c4cc(F)cc5sccc45)CC3)cc2[nH]1 [Compound of example 102, 7-(2-(4-(6-fluorobenzo[b]thiophen-4-yl)piperazin-1-yl)ethyl)quinolin-2(1H)-one] | 1900 nM | 106 nM | 3.29 nM | 3 mg/kg | –
9 | O=C1Cc2cc(CCCCN3CCN(c4cccc5sccc45)CC3)ccc2N1 [Compound of example 112, 5-(4-(4-(benzo[b]thiophen-4-yl)piperazin-1-yl)butyl)indolin-2-one] | 257 nM | 28.1 nM | 34.6 nM | 1 mg/kg | –
10 | O=C1COc2ccc(CCCCN3CCN(c4cccc5sccc45)CC3)cc2N1 [Compound of example 137, 6-(4-(4-(benzo[b]thiophen-4-yl)piperazin-1-yl)butyl)-2H-benzo[b][1,4]oxazin-3(4H)-one] | 711 nM | 30.2 nM | 1.81 nM | 3 mg/kg | –
